Usually DC50 stands for the midpoint of the concentration-degradation curve.

DC50 data for five molecules are collected here from patent US20260053932A1, “COMPOUNDS AND METHODS FOR THE TARGETED DEGRADATION OF ANDROGEN RECEPTOR AND ASSOCIATED METHODS OF USE” (Arvinas Operations, Inc., priority 2020, published 2026).

This assay deals with androgen receptor (AR) in LNCaP and/or VCaP cells. As to the kind of experiment: Androgen Receptor ELISA assay (AR degradation). The class given is cell-based. As to conditions: degradation of AR ELISA in LNCaP and/or VCaP cells; read-out: DC50 Code*. The essentials: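 VCaP cells grown ≥3 days, then treated 5 h with compound in media containing 1 nM R1881 (10× stock). Cells lysed and AR quantified by sandwich ELISA (mouse AR detection Ab, HRP anti-mouse, TMB). DC50 and Dmax derived from AR degradation.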
Background: In an ELISA, binding on a coated surface is turned into a signal by an enzyme label.
Take `COCCN(CC1CCN(c2cnc(C(=O)N[C@H]3C(C)(C)[C@H](Oc4ccc(C#N)c(Cl)c4)C3(C)C)cn2)CC1)[C@H]1C[C@H](Oc2ccc3c(c2)C(=O)N(C2CCC(=O)NC2=O)C3=O)C1` (some centres unmarked) [compound 239, N-((1r,3r)-3-(3-chloro-4-cyanophenoxy)-2,2,4,4-tetramethylcyclobutyl)-5-(4-((((1r,3r)-3-((2-(2,6-dioxopiperidin-3-yl)-1,3-dioxoisoindolin-5-yl)oxy)cyclobutyl)(2-methoxyethyl)amino)methyl)piperidin-1-yl)pyrazine-2-carboxamide]: the DC50 is 1 to 10 nM.
The same measure for `COc1cc(O[C@H]2C[C@H](N(CC(F)F)CC3CCN(c4ccc(C(=O)N[C@H]5C(C)(C)[C@H](Oc6cc(C)c(C#N)c(C)c6)C5(C)C)cc4)CC3)C2)cc2c1C(=O)N(C1CCC(=O)NC1=O)C2=O` (some centres unmarked) [compound 242, N-((1r,3r)-3-(4-cyano-3,5-dimethylphenoxy)-2,2,4,4-tetramethylcyclobutyl)-4-(4-(((2,2-difluoroethyl)((1r,3r)-3-((2-(2,6-dioxopiperidin-3-yl)-7-methoxy-1,3-dioxoisoindolin-5-yl)oxy)cyclobutyl)amino)methyl)piperidin-1-yl)benzamide]: 1 to 10 nM; for `COc1cc(O[C@H]2C(C)(C)[C@H](NC(=O)c3ccc(N4CCC(CN5CCOCCCCOc6cc(cc7c6C(=O)N(C6CCC(=O)NC6=O)C7=O)O[C@H]6C[C@H]5C6)CC4)nn3)C2(C)C)ccc1C#N` (some centres unmarked) [compound 244]: 1 to 10 nM; for `CC1(C)[C@H](NC(=O)c2ccc(N3CCC(CO[C@H]4C[C@H](Oc5ccc6c(c5)C(=O)N(C5CCC(=O)NC5=O)C6=O)C4)CC3)cc2)C(C)(C)[C@H]1Oc1ccc(C#N)c(Cl)c1` (some centres unmarked) [compound 245, N-((1r,3r)-3-(3-chloro-4-cyanophenoxy)-2,2,4,4-tetramethylcyclobutyl)-4-(4-(((1r,3r)-3-((2-(2,6-dioxopiperidin-3-yl)-1,3-dioxoisoindolin-5-yl)oxy)cyclobutoxy)methyl)piperidin-1-yl)benzamide]: 1 to 10 nM.
For the molecule `COc1cc(O[C@H]2C[C@H](N(CC(F)F)CC3CCN(c4cnc(C(=O)N[C@H]5C(C)(C)[C@H](Oc6cc(C)c(C#N)c(C)c6)C5(C)C)cn4)CC3)C2)cc2c1C(=O)N(C1CCC(=O)NC1=O)C2=O` (some centres unmarked) [compound 246, N-((1r,3r)-3-(4-cyano-3,5-dimethylphenoxy)-2,2,4,4-tetramethylcyclobutyl)-5-(4-(((2,2-difluoroethyl)((1r,3r)-3-((2-(2,6-dioxopiperidin-3-yl)-7-methoxy-1,3-dioxoisoindolin-5-yl)oxy)cyclobutyl)amino)methyl)piperidin-1-yl)pyrazine-2-carboxamide], the DC50 lay within 10 to 100 nM.
